In patent publication US20250179079A1, “HEXAHYDROPYRIDO[4,3-B]INDOLYL KETONE DERIVATIVES USEFUL AS CGAS MODULATORS” (Ventus Therapeutics U.S., Inc., priority 2022, published 2025):
Converted amounts (≈) assume the structure as drawn. Like-named read-outs stand apart in the source and are kept apart here.

How the values were obtained:
[1] = Solubility (e.g., in phosphate buffered saline (PBS)); format: physicochemical; details: aqueous buffer, Table D
h-cGAS = h-cGAS (Homo sapiens (Human), UniProt Q8N884); assay: hcGAS Kinase-Glo assay; format: biochemical
Chain of h-cGAS (Q8N884 whole entry): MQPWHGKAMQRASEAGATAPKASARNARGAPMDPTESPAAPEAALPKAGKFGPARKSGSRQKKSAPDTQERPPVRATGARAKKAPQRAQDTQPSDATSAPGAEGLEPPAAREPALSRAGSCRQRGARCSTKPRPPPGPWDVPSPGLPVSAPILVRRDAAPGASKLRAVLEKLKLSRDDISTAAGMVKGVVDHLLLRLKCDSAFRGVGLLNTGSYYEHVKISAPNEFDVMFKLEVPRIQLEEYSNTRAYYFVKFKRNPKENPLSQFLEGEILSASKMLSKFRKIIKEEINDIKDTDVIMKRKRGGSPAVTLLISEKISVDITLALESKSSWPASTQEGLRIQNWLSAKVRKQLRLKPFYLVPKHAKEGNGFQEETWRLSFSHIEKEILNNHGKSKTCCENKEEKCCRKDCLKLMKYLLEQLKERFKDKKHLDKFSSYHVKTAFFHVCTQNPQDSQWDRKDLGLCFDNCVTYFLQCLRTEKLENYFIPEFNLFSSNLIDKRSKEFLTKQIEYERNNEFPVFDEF

[2] = Table D comparative data, IC50 range designation, read-out: hcGAS (IC50)
[3] = Table D comparative data, raw data in parentheses, read-out: hcGAS (IC50)
[4] = Table C, IC50 range designation, read-out: hcGAS IC50
[5] = Table C, raw data in parentheses, read-out: hcGAS IC50

Row | SMILES | solubility [1] | IC50 (h-cGAS; [2]) | IC50 (h-cGAS; [3]) | IC50 (h-cGAS; [4]) | IC50 (h-cGAS; [5]) | IC50 (h-cGAS; read-out: hcGAS activity)
1 | O=C(CO)N1CCc2[nH]c3c(Cl)c(Cl)ccc3c2C1 [Comparative Example A, 1-(6,7-dichloro-1,3,4,5-tetrahydro-2H-pyrido[4,3-b]indol-2-yl)-2-hydroxyethan-1-one] | 2 µM (≈ 0.598 µg/mL) | – | – | – | – | –
2 | Cn1ccc(-c2cc(Cl)c(Cl)c3[nH]c4c(c23)CN(C(=O)CO)CC4)n1 [Comparative Example B, 1-(6,7-dichloro-9-(1-methyl-1H-pyrazol-3-yl)-1,3,4,5-tetrahydro-2H-pyrido[4,3-b]indol-2-yl)-2-hydroxyethan-1-one, reference compound] | 8.1 µM (≈ 3.07 µg/mL) | < 100 nM | 35.2 nM | – | – | –
3 | O=C(CO)N1CCn2nc3c(Cl)c(Cl)ccc3c2C1 [Comparative Example C, 1-(7,8-dichloro-3,4-dihydropyrazino[1,2-b]indazol-2(1H)-yl)-2-hydroxyethan-1-one, reference compound] | 76 µM (≈ 22.8 µg/mL) | > 5000 nM | 12800 nM | – | – | –
4 | Cn1ccc(-c2cc(Cl)c(Cl)c3nn4c(c23)CN(C(=O)CO)CC4)n1 [Comparative Example D, 1-(7,8-dichloro-10-(1-methyl-1H-pyrazol-3-yl)-3,4-dihydropyrazino[1,2-b]indazol-2(1H)-yl)-2-hydroxyethan-1-one, reference compound] | 53 µM (≈ 20.2 µg/mL) | – | – | – | – | –
5 | Cc1cnc(C(=O)N2CCc3[nH]c4c(Cl)c(Cl)ccc4c3C2)[nH]1 [Compound 10, (6,7-dichloro-1,3,4,5-tetrahydro-2H-pyrido[4,3-b]indol-2-yl)(5-methyl-1H-imidazol-2-yl)methanone] | – | – | – | 1000 to 5000 nM | 3220 nM | 1000 to 5000 nM
6 | Nc1ccnc(C(=O)N2CCc3[nH]c4c(Cl)c(Cl)ccc4c3C2)n1 [Compound 14, (4-aminopyrimidin-2-yl)(6,7-dichloro-1,3,4,5-tetrahydro-2H-pyrido[4,3-b]indol-2-yl)methanone] | – | – | – | 1000 to 5000 nM | 1520 nM | 1000 to 5000 nM
7 | O=C(c1ncc(F)cn1)N1CCc2[nH]c3c(Cl)c(Cl)ccc3c2C1 [Compound 15, (6,7-dichloro-1,3,4,5-tetrahydro-2H-pyrido[4,3-b]indol-2-yl)(5-fluoropyrimidin-2-yl)methanone] | – | – | – | 500 to 1000 nM | 842 nM | 500 to 1000 nM
8 | COCCOCn1c2c(c3ccc(Cl)c(Cl)c31)CN(C(=O)c1ncc(OC)cn1)CC2 [Compound 23, (6,7-dichloro-5-((2-methoxyethoxy)methyl)-1,3,4,5-tetrahydro-2H-pyrido[4,3-b]indol-2-yl)(5-methoxypyrimidin-2-yl)methanone] | – | – | – | 1000 to 5000 nM | 2250 nM | 1000 to 5000 nM
9 | O=C(c1ncc(N2CCOCC2)cn1)N1CCc2[nH]c3c(Cl)c(Cl)ccc3c2C1 [Compound 31, (6,7-dichloro-1,3,4,5-tetrahydro-2H-pyrido[4,3-b]indol-2-yl)(5-morpholinopyrimidin-2-yl)methanone] | – | – | – | 100 to 500 nM | 222 nM | 100 to 500 nM
10 | COc1ccc(C(=O)N2CCc3[nH]c4c(Cl)c(Cl)ccc4c3C2)nn1 [Compound 56, (6,7-dichloro-1,3,4,5-tetrahydro-2H-pyrido[4,3-b]indol-2-yl)(6-methoxypyridazin-3-yl)methanone] | – | – | – | 1000 to 5000 nM | 4350 nM | –
11 | NC(=O)C(=O)N1CCc2[nH]c3c(Cl)c(Cl)ccc3c2C1 [Compound 57, 2-(6,7-dichloro-1,3,4,5-tetrahydro-2H-pyrido[4,3-b]indol-2-yl)-2-oxoacetamide] | – | – | – | 1000 to 5000 nM | 4210 nM | 1000 to 5000 nM
12 | NNC(=O)N1CCc2[nH]c3c(Cl)c(Cl)ccc3c2C1 [Compound 59, 6,7-dichloro-1,3,4,5-tetrahydro-2H-pyrido[4,3-b]indole-2-carbohydrazide] | – | – | – | 100 to 500 nM | 620 nM | 100 to 500 nM
13 | CNCC(=O)N1CCc2[nH]c3c(Cl)c(Cl)ccc3c2C1 [Compound 64, 1-(6,7-dichloro-1,3,4,5-tetrahydro-2H-pyrido[4,3-b]indol-2-yl)-2-(methylamino)ethan-1-one] | – | – | – | – | 1490 nM | 1000 to 5000 nM
14 | NCC(=O)N1Cc2[nH]c3c(Cl)c(Cl)ccc3c2C1 [Compound 65, 2-amino-1-(5,6-dichloro-3,4-dihydropyrrolo[3,4-b]indol-2(1H)-yl)ethan-1-one] | – | – | – | 500 to 1000 nM | 933 nM | –
15 | NCC(=O)N1C2COCC1c1c([nH]c3c(Cl)c(Cl)ccc13)C2 (stereo not drawn) [Compound 66, 2-amino-1-(8,9-dichloro-1,2,4,5,6,7-hexahydro-1,5-epiminooxocino[5,4-b]indol-12-yl)ethan-1-one] | – | – | – | 100 to 500 nM | 314 nM | 100 to 500 nM
16 | COCCNCC(=O)N1CCc2[nH]c3c(Cl)c(Cl)ccc3c2C1 [Compound 69, 1-(6,7-dichloro-1,3,4,5-tetrahydro-2H-pyrido[4,3-b]indol-2-yl)-2-((2-methoxyethyl)amino)ethan-1-one] | – | – | – | 500 to 1000 nM | 678 nM | 1000 to 5000 nM
17 | C[C@H]1c2c([nH]c3c(Cl)c(Cl)ccc23)CCN1C(=O)CO [Compound 157, (S)-1-(6,7-dichloro-1-methyl-1,3,4,5-tetrahydro-2H-pyrido[4,3-b]indol-2-yl)-2-hydroxyethan-1-one] | 42 µM (≈ 13.2 µg/mL) | – | – | – | – | –
